These results are taken from patent US20080039319A1, “Fungicidal Mixtures and Novel Triazolopyrimidines” (Basf Aktiengesellschaft, priority 2004, published 2008).

The test system of assay [1] is Pyrenophora [syn. Drechslera] teres. The assay can be described thus: Use Example 4: activity against net blotch of barley caused by Pyrenophora teres, 1-day protective application (first test). The format is in vivo. To be noted: individual active compound.
Assay [2] concerns Alternaria solani. The assay can be described thus: Comparative Test 1: activity against early blight of tomato caused by Alternaria solani. The format is in vivo. To be noted: individual active compound.
The next assay deals with Phytophthora infestans. The conditions noted are these: in vivo.
Another assay relates to Plasmopara viticola. Nature of the assay: Comparative Test 3: activity against Peronospora of grapevines caused by Plasmopara viticola. The format is in vivo. To be noted: individual active compound.
For a further assay, the system named is Botrytis cinerea. Nature of the assay: Use Example 7: activity against gray mold on bell pepper leaves caused by Botrytis cinerea, protective application. Type of assay: in vivo. The conditions noted are these: individual active compound.
Assay [3] deals with Pyrenophora [syn. Drechslera] teres. The assay can be described thus: Use Example 4: net blotch of barley caused by Pyrenophora teres, second test. Type of assay: in vivo. The conditions noted are these: individual active compound.
Assay [4] concerns Erysiphe [syn. Blumeria] graminis forma specialis. Tritici. The assay can be described thus: Use Example 5: activity against mildew of wheat caused by Erysiphe [syn. Blumeria] graminis forma specialis tritici, 3-day protective application. Type of assay: in vivo, Erysiphe graminis f. sp. tritici. To be noted: individual active compound.
In a further assay the test system is Sphaerotheca fuliginea. Nature of the assay: Use Example 8: activity against mildew on cucumber leaves caused by Sphaerotheca fuliginea, protective application. The conditions noted are these: in vivo.
Assay [5] relates to Alternaria solani. Nature of the assay: Use Example 6: activity against early blight of tomato caused by Alternaria solani (second test). To be noted: individual active compound. Type of assay: in vivo.

Take `Fc1ccc([C@]2(Cn3cncn3)O[C@H]2c2ccccc2Cl)cc1` (racemic) [epoxiconazole (A-1), (2RS,3SR)-1-[3-(2-chlorophenyl)-2,3-epoxy-2-(4-fluorophenyl)propyl]-1H-1,2,4-triazole]: the results for the “Efficacy in % of the untreated control” value in [1] (1.25 ppm in the spray liquor), in [1] (2.5 ppm in the spray liquor) and in assay [1] (5 ppm in the spray liquor) were 0%, 20% and 77%, respectively.

Take `COCC(=O)N(c1c(C)cccc1C)C(C)C(=O)OC` (racemic) [metalaxyl (C-1), methyl N-(methoxyacetyl)-N-(2,6-xylyl)-DL-alaninate]: the “Efficacy in % of the untreated control” value in the assay with Alternaria solani [2] (6.25 ppm in the spray liquor) and in the assay on Alternaria solani [2] (50 ppm in the spray liquor) was 0% throughout.

For the compound `CC1CCN(c2c(-c3c(F)cccc3Cl)c(Cl)nc3ncnn23)CC1` [(π)], the “Efficacy in % of the untreated control” value in the assay with Phytophthora infestans was found to be 0%; in the assay with Alternaria solani [2] (2.5 ppm in the spray liquor) it was 0%; with Alternaria solani [2] (5 ppm in the spray liquor) it was 21%; in the assay with Alternaria solani [2] (10 ppm in the spray liquor), 44%; in the assay with Plasmopara viticola (5 ppm in the spray liquor) it was 5%; in the assay on Plasmopara viticola (10 ppm in the spray liquor) it was 19%.

For the compound `O=C(Nc1ccccc1-c1ccc(Cl)cc1)c1cccnc1Cl` [boscalid (L-2), 2-chloro-N-(4′-chlorobiphenyl-2-yl)nicotinamide], in the assay with Phytophthora infestans, the “Efficacy in % of the untreated control” value is 0%.

As to `O=C1C2CC=CCC2C(=O)N1SC(Cl)(Cl)Cl` (stereo not shown) [captan (P-1), 2-trichloromethylsulfanyl-3a,4,7,7a-tetrahydroisoindole-1,3-dione], the “Efficacy in % of the untreated control” value is 11% in the assay on Botrytis cinerea (12.5 ppm in the spray liquor), 56% in the assay with Botrytis cinerea (100 ppm in the spray liquor), 0% with Plasmopara viticola (12.5 ppm in the spray liquor) and 0% with Plasmopara viticola (50 ppm in the spray liquor).

On to `N#Cc1c(Cl)c(Cl)c(Cl)c(C#N)c1Cl` [chlorothalonil (Q-1), 2,4,5,6-tetrachloroisophthalonitrile], for which the “Efficacy in % of the untreated control” value in assay [3] (12.5 ppm in the spray liquor), in assay [3] (50 ppm in the spray liquor) and in [3] (100 ppm in the spray liquor) was 0% each time.

With `COc1ccc(C(=CC(=O)N2CCOCC2)c2ccc(Cl)cc2)cc1OC` [dimethomorph (G-1), 3-(4-chlorophenyl)-3-(3,4-dimethoxyphenyl)-1-morpholin4-ylpropenone], the “Efficacy in % of the untreated control” value in the assay with Alternaria solani [2] (3.125 ppm in the spray liquor), in the assay on Alternaria solani [2] (12.5 ppm in the spray liquor), with Alternaria solani [2] (25 ppm in the spray liquor) and with Alternaria solani [2] (50 ppm in the spray liquor) was 0% throughout.

Turning to `N#Cc1sc2c(=O)c3ccccc3c(=O)c=2sc1C#N` [dithianon (L-3), 5,10-dioxo-5,10-dihydronaphtho[2,3-b][1,4]dithiine-2,3-dicarbonitrile], the “Efficacy in % of the untreated control” value with Phytophthora infestans worked out at 0%.

Consider `CC(Cc1ccc(C(C)(C)C)cc1)CN1CC(C)OC(C)C1` [fenpropimorph (D-1), 4-[3-(4-tert-butylphenyl)-2-methylpropyl]-2,6-dimethylmorpholine], for which the “Efficacy in % of the untreated control” value in [4] (15 ppm in the spray liquor) stood at 0%; in assay [4] (30 ppm in the spray liquor), 67%.

`N#Cc1c[nH]cc1-c1cccc2c1OC(F)(F)O2` [fludioxonil (O-1), 4-(2,2-difluorobenzo[1,3]dioxol-4-yl)-1H-pyrrole-3-carbonitrile]: the “Efficacy in % of the untreated control” value with Sphaerotheca fuliginea is given as 56%.

Regarding `OC(Cn1cncn1)(c1ccc(F)cc1)c1ccccc1F` (stereo not shown) [flutriafol (A-2), 1-(4-fluorophenyl)-1-(2-fluorophenyl)-2-[1,2,4]triazol-1-ylethanol], the “Efficacy in % of the untreated control” value in assay [1] (1.25 ppm in the spray liquor), in assay [1] (2.5 ppm in the spray liquor) and in [1] (5 ppm in the spray liquor) was 0% each time.

As for `CC(C)NC(=O)N1CC(=O)N(c2cc(Cl)cc(Cl)c2)C1=O` [iprodione (F-1), N-isopropyl-3-(3,5-dichlorophenyl)-2,4-dioxoimidazolidine-1-carboxamide], the “Efficacy in % of the untreated control” value (with Alternaria solani [5] (12.5 ppm in the spray liquor); in the assay on Alternaria solani [5] (100 ppm in the spray liquor); in assay [3] (12.5 ppm in the spray liquor); in [3] (50 ppm in the spray liquor)) was 0% each time.

For the compound `CC1(C)CCC(Cc2ccc(Cl)cc2)C1(O)Cn1cncn1` (stereo not shown) [metconazole (A-3), 5-(4-chlorobenzyl)-2,2-dimethyl-1-[1,2,4]triazol-1-ylmethylcyclopentanol], the “Efficacy in % of the untreated control” value in [1] (1.25 ppm in the spray liquor), in assay [1] (2.5 ppm in the spray liquor) and in assay [1] (5 ppm in the spray liquor) was 0% in each case.

Turning to `CC(C)OC(=O)c1cc(C(=O)OC(C)C)cc([N+](=O)[O-])c1` [nitrophthal-isopropyl (N-1), diisopropyl 5-nitroisophthalate], the “Efficacy in % of the untreated control” value is given as 0% with Botrytis cinerea (12.5 ppm in the spray liquor) and 33% with Botrytis cinerea (100 ppm in the spray liquor).

Regarding `COC(=O)N(OC)c1ccccc1COc1ccn(-c2ccc(Cl)cc2)n1` [pyraclostrobin (B-1), methyl N-{2-[1-(4-chlorophenyl)-1H-pyrazol-3-yloxymethyl]phenyl}(N-methoxy)carbamate], the “Efficacy in % of the untreated control” value in the assay with Alternaria solani [5] (0.3125 ppm in the spray liquor) was 22%; in the assay with Alternaria solani [5] (0.625 ppm in the spray liquor), 56%.

As to `S1SSSSSSS1` [sulfur (M-1), sulfur], the “Efficacy in % of the untreated control” value in the assay on Botrytis cinerea (0.3125 ppm in the spray liquor) is 22%; with Botrytis cinerea (0.625 ppm in the spray liquor), 56%.

As to `COC(=O)NC(=S)Nc1ccccc1NC(=S)NC(=O)OC` [thiophanate-methyl (L-4), dimethyl 1,2-phenylenebis(iminocarbonothioyl)bis(carbamate)], the “Efficacy in % of the untreated control” value (in the assay with Alternaria solani [5] (100 ppm in the spray liquor); in assay [3] (6.3 ppm in the spray liquor); in assay [3] (100 ppm in the spray liquor)) was 0% each time.

“manganese ethylenebis(dithiocarbamate) zinc complex [mancozeb (K-1)]”: the “Efficacy in % of the untreated control” value in assay [3] (6.3 ppm in the spray liquor), in assay [3] (12.5 ppm in the spray liquor) and in assay [3] (50 ppm in the spray liquor) was 0% in each case.

Take “zinc ammoniate ethylenebis(dithiocarbamate) [metiram (K-2)]”: the “Efficacy in % of the untreated control” value in assay [3] (12.5 ppm in the spray liquor), in assay [3] (50 ppm in the spray liquor) and in [3] (100 ppm in the spray liquor) was 0% in each case.
